Experimental data published in US6737256B2, “Overcoming DAPA aminotransferase bottlenecks in biotin vitamers biosynthesis” (Roche Vitamins Inc., priority 1997, dated 2004).
Read-outs that look alike come from different tables or passages of the source.

Columns and labels:
[1] = target: T1, B. subtilis DAPA aminotransferase (Bacillus subtilis, UniProt P53555); assay type: biochemical; details: for DAPA aminotransferase specfic activity: compound added to extract of BI611; for function as amino donor with the B. subtilis enzyme / stimulation of DAPA aminotransferase activity: result in words; for stimulation of DAPA aminotransferase activity: dialyzed BI611 extract
T1 construct: A cell free extract prepared from a B. subtilis strain deleted for the bio operon but containing multiple copies (4-6) of the B. subtilis bioA gene; made in house; host or cells: B. subtilis BI611 (Δbio:cat, bpr:[P26bioA]4-6), cell-free extract (dialyzed for A1, crude for A2)
T1 sequence (P53555 1-448): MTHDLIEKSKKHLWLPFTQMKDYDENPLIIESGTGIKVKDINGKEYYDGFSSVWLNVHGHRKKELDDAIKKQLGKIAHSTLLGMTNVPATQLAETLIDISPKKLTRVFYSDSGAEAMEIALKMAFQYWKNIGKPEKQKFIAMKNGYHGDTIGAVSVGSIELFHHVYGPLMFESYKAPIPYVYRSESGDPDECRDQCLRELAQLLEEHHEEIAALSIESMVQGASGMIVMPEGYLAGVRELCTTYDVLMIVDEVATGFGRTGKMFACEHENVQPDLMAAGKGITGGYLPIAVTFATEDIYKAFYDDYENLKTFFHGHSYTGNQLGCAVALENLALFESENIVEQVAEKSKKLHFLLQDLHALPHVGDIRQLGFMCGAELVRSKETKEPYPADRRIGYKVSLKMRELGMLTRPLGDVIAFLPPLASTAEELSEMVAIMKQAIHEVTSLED
Method: The assay for DAPA aminotransferase is described by Eisenberg and Stoner in 1971 (J. Bacteriol. 108:1135-1140). In this assay, the substrate KAPA is incubated with S-adenosylmethionine (SAM) in the presence of the cofactor pyridoxal 5′-phosphate and cell extract. We measured the amount of DAPA produced in a plate bioassay utilizing an E. coli bioA strain. Streptavidin (8 μg/ml) was added to the assay mix because extracts of many of the strains to be assayed contained significant amounts of biotin and dethiobiotin which fed the E. coli indicator strain used in the bioassay. Contamination by trace amounts of biotin and dethiobiotin was also removed from the KAPA preparation used as substrate by passing the material over an avidin-agarose column. The E. coli bioA109 strain (MEC1) was used to measure DAPA aminotransferase activity in the bioassay. […] Eisenberg's DAPA-sensitive strain was obtained from the E. coli Genetic Stock Center at Yale University.
To determine whether B. subtilis DAPA aminotransferase activity could be stimulated by addition of other amino donors to the reaction mix, various amino donors were screened for their ability to stimulate enzyme activity in vitro. A cell free extract prepared from a B. subtilis strain deleted for the bio operon but containing multiple copies (4-6) of the B. subtilis bioA gene transcribed from a phage SP01-26 promoter with the cassette integrated at the bpr locus, BI611 (Δbio:cat, bpr:[P26bioA]4-6), was dialyzed to remove any endogenous levels of the amino donor and the extract was assayed in the presence of each of the standard amino acids and several other amine compounds. […] In a subsequent experiment, various lysine derivatives and analogs were tested for stimulation of activity (Table 2). […] The structure of (S)-2-aminoethyl-L-cysteine is identical to L-lysine except that the γ carbon has been replaced by a sulfur atom.

[2] = target: T1, B. subtilis DAPA aminotransferase; experiment: DAPA aminotransferase assay of BI282 extract, dependence on SAM; assay type: biochemical
Method: (§1) The assay for DAPA aminotransferase is described by Eisenberg and Stoner in 1971 (J. Bacteriol. 108:1135-1140). In this assay, the substrate KAPA is incubated with S-adenosylmethionine (SAM) in the presence of the cofactor pyridoxal 5′-phosphate and cell extract. We measured the amount of DAPA produced in a plate bioassay utilizing an E. coli bioA strain. Streptavidin (8 μg/ml) was added to the assay mix because extracts of many of the strains to be assayed contained significant amounts of biotin and dethiobiotin which fed the E. coli indicator strain used in the bioassay. Contamination by trace amounts of biotin and dethiobiotin was also removed from the KAPA preparation used as substrate by passing the material over an avidin-agarose column. The E. coli bioA109 strain (MEC1) was used to measure DAPA aminotransferase activity in the bioassay. This E.coli bioA strain, developed for the assay by Eisenberg, was reported to be many times more sensitive to DAPA than any other bioA mutant. Eisenberg's DAPA-sensitive strain was obtained from the E. coli Genetic Stock Center at Yale University.
A B. subtilis strain, BI282, engineered to overexpress B. subtilis BioA protein was assayed for DAPA aminotransferase activity: BI282 contains a P15 bio cassette amplified at the bio locus (described in Patent Application 0635572A2). […]

[3] = target: T2, E. coli DAPA aminotransferase (Escherichia coli, UniProt P12995); experiment: DAPA aminotransferase assay of extracts of B. subtilis strains containing E. coli bioA; assay type: biochemical; details: strains lacking native bioA, with E. coli bioA
Method: as §1
(§2) The enzyme reaction was approximately linear with time for at least 60 minutes. […] Enzyme activity was destroyed by boiling the extract, or freezing and thawing, although freezing the extract in the presence of 10% DMSO appeared to stabilize the enzyme. […]

[4] = target: T3, S. marcescens DAPA aminotransferase (Serratia marcescens, UniProt P36568); experiment: DAPA aminotransferase assay of extracts of B. subtilis strains containing S. marcescens bioA; assay type: biochemical; details: strains lacking native bioA, with S. marcescens bioA
T3 construct: made in house; host or cells: B. subtilis strain lacking the native bioA gene, carrying S. marcescens bioA; cell extract
Method: as §1, §2

[5] = target: T2, E. coli DAPA aminotransferase; details: cited from earlier work; for Km: Stoner and Eisenberg 1975
[6] = system: B. subtilis strains, PY79, BI282, and BI603; experiment: Sensitivity of B. subtilis strains to lysine analogs on minimal medium; assay type: cell-based; details: minimal medium with no additive, with threonine, or with DAP plus threonine
Method: Three out of the four classical cases of lysine deregulated mutants were isolated by selecting for lysine analog resistance. B. subtilis strains, PY79 (Youngman et al., Plasmid 12:1-9, 1984), BI282, and BI603 were tested for sensitivity to four lysine analogs, on minimal medium with no additive, with threonine, or with DAP plus threonine. The purpose of the additives was to focus the selection on the lysC gene, that encodes the lysine sensitive aspartokinase II. […] All three strains behaved similarly; all were sensitive to AEC in all three media.

[7] = target: T1, B. subtilis DAPA aminotransferase; experiment: Kinetic studies of B. subtilis DAPA aminotransferase (crude cell-free extract of BI611); assay type: biochemical; details: for Km: crude cell-free extract of BI611
Method: as §1
The kinetic properties of B. subtilis DAPA aminotransferase were investigated using a crude cell-free extract prepared from BI611 (Δbio:cat, bpr:[P26bioA]4-6). […] The conversion of substrate to product was approximately 10 to 40% in 20 minutes. […] The pH optimum for the transamination reaction was determined to be pH 8.6. […] The […] enzyme was subject to inhibition by KAPA at levels above 20 μM. […] The enzyme became saturated for lysine at concentrations between 20 and 40 mM.
The substrate inhibition of B. subtilis DAPA aminotransferase by KAPA provides evidence for a double displacement or ping-pong reaction mechanism, as has been shown for E.coli DAPA aminotransferase (Stoner et al., J. Biol. Chem. 250:4037-4043, 1975). KAPA concentration was varied at four different fixed lysine concentrations, and initial velocity data was collected and plotted in a double reciprocal form. […]

T2 sequence (P12995 whole entry): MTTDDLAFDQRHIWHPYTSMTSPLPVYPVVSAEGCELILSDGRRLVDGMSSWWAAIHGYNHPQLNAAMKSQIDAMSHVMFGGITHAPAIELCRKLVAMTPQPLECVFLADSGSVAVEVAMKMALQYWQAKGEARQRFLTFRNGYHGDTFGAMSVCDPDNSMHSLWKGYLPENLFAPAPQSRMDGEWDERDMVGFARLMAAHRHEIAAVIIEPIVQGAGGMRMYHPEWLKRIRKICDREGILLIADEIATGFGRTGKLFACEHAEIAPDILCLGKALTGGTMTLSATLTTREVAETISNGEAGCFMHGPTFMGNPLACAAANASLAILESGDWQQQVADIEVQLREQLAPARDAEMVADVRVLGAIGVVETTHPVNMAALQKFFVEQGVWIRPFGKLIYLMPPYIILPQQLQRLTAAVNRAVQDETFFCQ
T3 sequence (P36568 whole entry): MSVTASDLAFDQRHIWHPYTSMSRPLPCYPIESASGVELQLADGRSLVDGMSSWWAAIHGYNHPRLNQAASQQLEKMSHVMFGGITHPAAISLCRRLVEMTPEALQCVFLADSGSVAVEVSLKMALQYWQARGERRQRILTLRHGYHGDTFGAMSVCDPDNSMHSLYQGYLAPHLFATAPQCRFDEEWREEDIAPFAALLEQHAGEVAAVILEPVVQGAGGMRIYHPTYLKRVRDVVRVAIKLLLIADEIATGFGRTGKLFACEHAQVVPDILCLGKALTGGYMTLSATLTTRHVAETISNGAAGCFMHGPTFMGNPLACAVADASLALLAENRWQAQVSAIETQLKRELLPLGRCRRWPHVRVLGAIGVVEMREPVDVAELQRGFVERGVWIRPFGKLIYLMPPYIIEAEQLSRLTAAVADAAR

lys-gly
DAPA aminotransferase specfic activity [1]: 0 nmol/min/mg

C[S+](CC[C@H](N)C(=O)O)C[C@H]1O[C@@H](n2cnc3c(N)ncnc32)[C@H](O)[C@@H]1O (stereo partly shown) [SAM, S-adenosylmethionine]
function as amino donor with the B. subtilis enzyme [1]: not a significant amino donor
dependence of enzyme activity on presence of SAM [2]: not dependent on the presence of SAM
dependence of enzyme activity on presence of SAM [3]: dependent on the presence of exogenous SAM
dependence of enzyme activity on presence of SAM [4]: dependent on the presence of exogenous SAM
Km ([5]; purified E. coli enzyme, read-out: Km for SAM): 200 µM

gly-lys
DAPA aminotransferase specfic activity [1]: 0 nmol/min/mg

CC(=O)NCCCC[C@H](N)C(=O)O [Nε-acetyl-L-lysine]
DAPA aminotransferase specfic activity [1]: 0 nmol/min/mg

CC(=O)N[C@@H](CCCCN)C(=O)O [Nα-acetyl-L-lysine]
DAPA aminotransferase specfic activity [1]: 0 nmol/min/mg

(S)-2-aminoethyl-L-cysteine
DAPA aminotransferase specfic activity [1]: 0.48 nmol/min/mg
function as amino donor with the B. subtilis enzyme [1]: function as amino donors
stimulation of DAPA aminotransferase activity [1]: stimulate activity
inhibition of growth [6]: inhibited growth

N[C@H](CCC[C@H](N)C(=O)O)C(=O)O [diaminopimelic acid]
DAPA aminotransferase specfic activity [1]: 0 nmol/min/mg

CC(N)C(=O)CCCCCC(=O)O (stereo not shown) [KAPA, 8-amino-7-ketopelargonic acid]
Km ([7]; read-out: apparent Km for KAPA): 0.001 to 0.005 mM
KAPA concentration above which inhibition of activity was observed ([7]; lysine constant at 19 mM): above 80 μM
KAPA level above which enzyme was subject to inhibition ([5]; Eisenberg and Stoner 1971): above 20 μM
Km ([5]; read-out: Km for KAPA): 1.2 µM

NCCCC[C@H](N)C(=O)O [L-lysine]
DAPA aminotransferase specfic activity ([1]; listed as L-lysine (>98%)): 0.76 nmol/min/mg
DAPA aminotransferase specfic activity ([1]; listed as L-lysine (>99%)): 0.56 nmol/min/mg
function as amino donor with the B. subtilis enzyme [1]: function as amino donors
stimulation of DAPA aminotransferase activity ([1]; listed as L-lysine hydrochloride): stimulated DAPA aminotransferase activity
stimulation of DAPA aminotransferase activity ([1]; listed as L-lysine(>99% pure)): stimulate activity
Km ([7]; read-out: apparent Km for lysine): 2 to 25 mM

NCCCCC(N)C(=O)O (racemic) [DL-lysine (>98%), DL-lysine]
DAPA aminotransferase specfic activity [1]: 0.35 nmol/min/mg

CNCCCC[C@H](N)C(=O)O [Nε-methyl-L-lysine]
DAPA aminotransferase specfic activity [1]: 0 nmol/min/mg

NCCCC[C@@H](N)C(=O)O [D-lysine]
DAPA aminotransferase specfic activity [1]: 0.19 nmol/min/mg
function as amino donor with the B. subtilis enzyme [1]: function as amino donors
